Among the data in the supplement of paper PMC8024199 are drug sensitivity score values, retold here.

Common to all, as to experiment: drug sensitivity score (DSS) (DSS score); higher = more sensitive (stronger growth inhibition); extreme values may be limits of the assay
The test system of assay [1] is Ba/F3 P210-BCR-ABL1 RUNX1-/mut (mouse). The method in brief:
(§1)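 A drug sensitivity score summarised each dose-response curve, with luminescence from CellTiter-Glo scaled between vehicle and positive-control wells. Values are the mean of two replicates. The cells were mouse Ba/F3 clones that were CRISPR/Cas9-edited at a target exon or were edited controls, exposed on pre-printed 384-well plates to a 528-compound library at five concentrations spanning a 10,000-fold range. Plates held 10,000 cells per well in RPMI with 10% FBS for 72 h at 37 °C and 5% CO2.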

In assay [2] the test system is Ba/F3 P210-BCR-ABL1 RUNX1-/- (mouse). The method in brief:
as §1

Assay [3] deals with Ba/F3 P210-BCR-ABL1 RUNX1wt/wt control (mouse). The gist of the method: as §1

± gives the standard deviation of the averaged measurements.

`CC(C)(C)C[C@@H]1N[C@@H](C(=O)N[C@H]2CC[C@H](O)CC2)[C@H](c2cccc(Cl)c2F)[C@]12C(=O)Nc1cc(Cl)ccc12`: the drug sensitivity score in assay [1] turned out to be 6.95 ± 1.9; in assay [2], 6.65 ± 1.3; in assay [3], 0.75 ± 0.35.
Consider `CC(C)(C)c1cc(NC(=O)Nc2ccc(Oc3ccnc4[nH]c(=O)cnc34)cc2F)n(-c2ccccc2)n1`, for which the drug sensitivity score stood at 20.9 ± 0.49 in assay [1], 25.9 ± 0.78 in assay [2] and 17.4 ± 0.21 in assay [3].
For `CC(C)Oc1ccc(C(=O)N[C@H](CNC(=O)CN(C)C)Cc2ccc(-c3cn4cccc([C@H](C)O)c4n3)cc2)cc1Cl`, the drug sensitivity score in assay [1] came to 7.5 ± 2.4; in assay [2], 10.2 ± 0.57; in assay [3], 2 ± 0.14.
For `CCOc1ccn(-c2ccc(F)cc2)c(=O)c1C(=O)Nc1ccc(Oc2ccnc(N)c2Cl)c(F)c1` the same measures were 0, 0.1 ± 0.14 and 0.
With `CCc1cncnc1N1CCN(Cc2nc3ccc(C(F)(F)F)cc3[nH]2)CC1`, the drug sensitivity score in assay [1] stood at 0.8 ± 1.1; in assay [2] it was 2 ± 1.1; in assay [3] it was 0.
In the case of `CCn1c(-c2nonc2N)nc2c(C#CC(C)(C)O)ncc(OC[C@H]3CCCNC3)c21`, the drug sensitivity score in assay [1] stood at 1.45 ± 2; in assay [2], 0.75 ± 1.1; in assay [3] it was 0.
As for `CCn1c(-c2nonc2N)nc2cnc(Oc3cccc(NC(=O)c4ccc(OCCN5CCOCC5)cc4)c3)cc21`, the drug sensitivity score was 4.25 ± 2.3 in assay [1], 5.55 ± 1.1 in assay [2] and 1.45 ± 0.071 in assay [3].
Consider `CCn1c(C(=O)N(C2CC2)C2CC2)cc2c3c(ncn3C)c(Nc3cc(C)n(C)n3)nc21`, for which the values for the drug sensitivity score in assay [1], in assay [2] and in assay [3] were 0, 0.35 ± 0.49 and 0, respectively.
In the case of `CCn1cc(-c2ccnc3[nH]c(-c4cccc(CN(C)C)c4)cc23)c(-c2ccc(NC(=O)N(C)C)cc2)n1`, the results for the drug sensitivity score in assay [1], in assay [2] and in assay [3] were 9.15 ± 1.5, 14.6 ± 2.2 and 0.3 ± 0.28, respectively.
Regarding `CN(C)CC#Cc1ccc(OCCCc2sc(N3CCc4cccc(C(=O)Nc5nc6ccccc6s5)c4C3)nc2C(=O)O)c(F)c1`, the results for the drug sensitivity score in assay [1], in assay [2] and in assay [3] were 5.95 ± 4.7, 5.55 ± 0.071 and 3 ± 0.14, respectively.
For `CN(c1ncccc1CNc1nc(Nc2ccc3c(c2)CC(=O)N3)ncc1C(F)(F)F)S(C)(=O)=O`, in that order: 7.25 ± 1.9, 5.7 ± 0.28 and 4.8 ± 0.57.
On to `CN1CCN(C2CCC(n3cc(-c4ccc(Oc5ccccc5)cc4)c4c(N)ncnc43)CC2)CC1` (stereo unspecified), for which the drug sensitivity score in assay [1] turned out to be 17.9 ± 1.1; in assay [2], 23.4 ± 0.28; in assay [3] it was 16.6 ± 0.71.
`CNC(=O)c1ccc(C)c(-n2c(C)cc(OCc3ccc(F)cc3F)c(Br)c2=O)c1`: the drug sensitivity score in assay [1] amounted to 0.05 ± 0.071; in assay [2], 0; in assay [3], 0.
Regarding `CNC(=O)c1ccccc1Nc1nc(Nc2ccc3c(c2OC)CCC[C@H](N2CCN(CCO)CC2)C3)ncc1Cl`, the drug sensitivity score in assay [1] was determined as 8.65 ± 0.21; in assay [2], 8.75 ± 0.21; in assay [3], 8 ± 0.14.
Take `CNc1nc(-c2ccc3c(N)n[nH]c3c2)cc(N2C[C@@H](C(=O)NC3CCCCC3)CC[C@H]2C)n1`: the drug sensitivity score was 4 ± 2.3 in assay [1], 7.15 ± 0.35 in assay [2] and 0 in assay [3].
As for `CNc1ncc2cc(-c3cc(NC(=O)NCCC(C)(C)C)c(F)cc3C)c(C)nc2n1`, the values for the drug sensitivity score in assay [1], in assay [2] and in assay [3] were 15.6 ± 0.64, 22.3 ± 0.28 and 9.45 ± 0.21, respectively.
Regarding `COc1cc2ncnc(Oc3cccc(NC(=O)Nc4cc(C(C)(C)C(F)(F)F)on4)c3)c2cc1OC`, the values for the drug sensitivity score in assay [1], in assay [2] and in assay [3] were 13.2 ± 19, 15.8 ± 22 and 21.6 ± 0.49, respectively.
With `COc1ccc(Cn2ccc3ccc(C(=O)NO)cc32)cc1`, the figures for the drug sensitivity score in assay [1], in assay [2] and in assay [3] were 4.25 ± 0.78, 3.15 ± 1.6 and 0, respectively.
For `COc1ccc2[nH]cc(/C=C3\C(=O)Nc4ccc(NC(=O)CCN5CCCCC5)cc43)c2c1`, in that order: 15.2 ± 4.4, 14.8 ± 2.5 and 6.05 ± 1.1.
For `C[C@@H](Oc1cc(-n2cnc3ccc(CN4CCN(C)CC4)cc32)sc1C(N)=O)c1ccccc1C(F)(F)F`, in that order: 20.6 ± 2.3, 22.2 ± 1.5 and 15.8.
As to `C[C@@H](Oc1ccc2[nH]nc(/C=C/c3cnn(CCO)c3)c2c1)c1c(Cl)cncc1Cl`, the drug sensitivity score in assay [1] is 8.95 ± 1.5; in assay [2], 14.5 ± 3.5; in assay [3], 6.65 ± 0.21.
For `C[C@@H]1CN(CC(=O)Nc2ccc3c(c2)Cc2cccc(-c4cc(=O)cc(N5CCOCC5)o4)c2S3)C[C@H](C)O1`, in that order: 5.3 ± 1.3, 6.15 ± 1.8 and 3.05 ± 0.49.
Turning to `C[C@H]1Oc2cc(cnc2N)-c2c(nn(C)c2C#N)CN(C)C(=O)c2ccc(F)cc21`, the figures for the drug sensitivity score in assay [1], in assay [2] and in assay [3] were 2.2 ± 3.1, 0.5 ± 0.71 and 0, respectively.
`Cc1c(-c2ccc(N3CCc4cccc(C(=O)Nc5nc6ccccc6s5)c4C3)nc2C(=O)O)cnn1CC12CC3CC(CC(C3)C1)C2`: the drug sensitivity score in assay [1], in assay [2] and in assay [3] was 0 in each case.
For `Cc1c(Cn2c(C)nc3c(C(=O)O)cc(N4CCOCC4)cc32)cccc1C(F)(F)F`, the drug sensitivity score in assay [1], in assay [2] and in assay [3] was 0 in each case.
Regarding `Cc1ccc(C(=O)N(CCCN)[C@@H](c2oc3cc(Cl)ccc3c(=O)c2Cc2ccccc2)C(C)C)cc1`, the drug sensitivity score in assay [1] stood at 6.65 ± 4.7; in assay [2] it was 9.5 ± 6.1; in assay [3] it was 1.9 ± 0.14.
For the compound `Cc1cccc(CC(=O)N2CCc3c2ccc(-c2cn(C)c4ncnc(N)c24)c3F)n1`, the results for the drug sensitivity score in assay [1], in assay [2] and in assay [3] were 0.55 ± 0.21, 1.85 ± 0.49 and 2.45 ± 0.35, respectively.
For `Cc1nc(Nc2n[nH]c3c2CN(C(=O)N[C@H](CN(C)C)c2ccccc2)C3(C)C)c2sccc2n1` the same measures were 37.2 ± 0.64, 40.15 ± 0.35 and 24.85 ± 0.071.
For the compound `Cc1ncc(Cl)cc1NCc1ccc(C(=O)N[C@@H](CC2CCCC2)C(=O)NC2CC2)s1`, the drug sensitivity score in assay [1] came to 4 ± 4.5; in assay [2] it was 4.65 ± 0.21; in assay [3], 0.
For `Cc1nn(C)c(COc2ccc(N3CCN(S(=O)(=O)N(C)C)CC3)cc2)c1-c1cccc2c(CCCOc3cccc4ccccc34)c(C(=O)O)n(CCN3CCOCC3)c12` the same measures were 6.6 ± 0.14, 6.9 ± 0.85 and 6.65 ± 0.64.
As for `N#Cc1ccc(COC[C@H]2O[C@@H](n3c(NCc4ccc(Cl)c(Cl)c4)nc4c(N)ncnc43)[C@H](O)[C@@H]2O)cc1`, the values for the drug sensitivity score in assay [1], in assay [2] and in assay [3] were 11.2 ± 4, 9.1 ± 1.8 and 3.55 ± 0.071, respectively.
For `NCC(=O)Nc1ccc(-n2nc(C(F)(F)F)cc2-c2ccc3c(ccc4ccccc43)c2)cc1`, in that order: 0, 0.6 ± 0.85 and 0.
For `NC[C@@](O)(c1ccc(Cl)cc1)c1ccc(-c2cn[nH]c2)cc1`, in that order: 0.05 ± 0.071, 1.25 ± 1.8 and 1.55 ± 0.78.
For `Nc1nccc(-c2c(-c3ccc(F)cc3)ncn2C2CCCCC2)n1`, in that order: 0, 0.05 ± 0.071 and 0.
Consider `Nc1ncnc2c1c(COc1cccc(Cl)c1)nn2C1CCOCC1`, for which the drug sensitivity score in assay [1] was 1.05 ± 1.1; in assay [2] it was 1.6 ± 1.1; in assay [3], 0.05 ± 0.071.
For `O=C(NC[C@H](O)CN1CCc2ccccc2C1)c1cc(NC2COC2)ncn1`, the drug sensitivity score in assay [1] was 5.2 ± 3.5; in assay [2] it was 7.8 ± 1.3; in assay [3], 0.
Regarding `O=C(NCc1ccncc1)C12CC3CC(C1)CC(c1ccc(Cl)cc1)(C3)C2`, the drug sensitivity score was 3.3 ± 1.8 in assay [1], 4.7 ± 0.57 in assay [2] and 2.8 ± 0.85 in assay [3].
Take `O=C(NOC[C@H](O)CO)c1ccc(F)c(F)c1Nc1ccc(I)cc1F`: the drug sensitivity score in assay [1] came out at 3.85 ± 1.1; in assay [2], 7.95 ± 0.92; in assay [3], 0.2 ± 0.28.
As for `O=C(Nc1ccc2[nH]nc(-c3ccncc3)c2c1)[C@@H]1CCN(CC(=O)N2CCN(c3ccc(-c4ncccn4)cc3)CC2)C1`, the results for the drug sensitivity score in assay [1], in assay [2] and in assay [3] were 10.7 ± 1.4, 17.8 ± 1.6 and 5.1 ± 1.3, respectively.
`O=C(O)c1ccc(-c2c[nH]c3ncc(-c4ccccc4)cc23)cc1C1CCCC1`: the results for the drug sensitivity score in assay [1], in assay [2] and in assay [3] were 2.5 ± 0.28, 2.8 ± 0.57 and 0.85 ± 0.35, respectively.
For `O=C(O)c1ccc(CN2CCC(CN[C@@H]3C[C@H]3c3ccccc3)CC2)cc1` the same measures were 0, 1.1 ± 1.1 and 0.
Take `O=c1[nH]c(C2CCCN2)nc2c1oc1ccc(Cl)cc12` (stereo unspecified): the drug sensitivity score stood at 2.3 ± 2.3 in assay [1], 7.1 ± 1.1 in assay [2] and 0 in assay [3].
